This is an account of results in article PMC6940761, “Novel Diels–Alder Type Adducts from Morus alba Root Bark Targeting Human Monoamine Oxidase and Dopaminergic Receptors for the Management of Neurodegenerative Diseases” (International Journal of Molecular Sciences, 2019).

By EC50 is commonly meant the concentration that produces a half-maximal response. A low value points to greater potency. As a reminder, the inhibition is the relative decrease from the control value, in per cent. What is called IC50 is the concentration at which inhibition is half-maximal.

The test system of one assay is hMAO. Kind of assay: initial hMAO activity screen at 100 µg/mL (MAO-Glo). The class given is biochemical, human. To be noted: isozyme not stated.
Assay [1] deals with human dopamine D3 receptor (hD3R) (Homo sapiens, UniProt P35462). Kind of assay: cell-based functional GPCR assay, cAMP modulation, CHO-D3R. The note with it: for % Stimulation of control agonist response: D3 (h), 100 µM test compound, control 300 nM DA; for agonist response (%): D3R, 25 µM test compound; for inhibition at 100 µM: read-out: % Inhibition of control agonist response.

Assay [2] deals with T1, human dopamine D2L receptor (hD2LR) (Homo sapiens, UniProt P14416).
T1 construct: host or cells: CHO (CHO-D2LR)
The assay can be described thus: cell-based functional GPCR assay, Ca2+ mobilization, CHO-D2LR. The note with it: for inhibition at 100 µM / % Stimulation of control agonist response: D2L (h), 100 µM test compound; for inhibition at 100 µM: control 700 nM DA, read-out: % Inhibition of control agonist response (converted); for % Stimulation of control agonist response: control 10 μM DA; for inhibition at 25 µM: D2LR, 25 µM test compound, read-out: % inhibition of DA response. (In general: A change in cytosolic calcium serves as a functional read-out for many receptors and channels.)

Assay [3] has as its target T2, Human Monoamine Oxidase A (hMAO-A) (Homo sapiens, UniProt P21397).
T2 construct: purchased Sigma-Aldrich
T2 sequence (P21397 1-527): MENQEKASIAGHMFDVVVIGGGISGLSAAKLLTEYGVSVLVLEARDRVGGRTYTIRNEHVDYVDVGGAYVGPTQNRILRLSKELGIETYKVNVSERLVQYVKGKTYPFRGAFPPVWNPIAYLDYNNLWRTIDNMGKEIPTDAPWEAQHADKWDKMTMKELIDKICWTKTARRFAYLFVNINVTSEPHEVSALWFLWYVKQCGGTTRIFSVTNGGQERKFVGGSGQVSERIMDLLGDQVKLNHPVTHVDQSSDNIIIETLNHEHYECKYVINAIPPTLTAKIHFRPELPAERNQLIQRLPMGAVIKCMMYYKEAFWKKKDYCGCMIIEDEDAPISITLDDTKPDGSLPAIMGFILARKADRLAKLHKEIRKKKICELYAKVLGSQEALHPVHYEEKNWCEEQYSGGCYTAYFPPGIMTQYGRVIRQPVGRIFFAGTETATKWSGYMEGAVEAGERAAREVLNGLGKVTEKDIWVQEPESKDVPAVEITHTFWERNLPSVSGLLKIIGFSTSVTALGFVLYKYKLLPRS
The assay can be described thus: hMAO-A inhibition, MAO-Glo chemiluminescent assay and enzyme kinetics. The class given is biochemical. To be noted: for Inhibition Type: Lineweaver–Burk and Dixon plots.

Assay [4] deals with T3, human dopamine D4 receptor (hD4R) (Homo sapiens, UniProt P21917).
T3 sequence (P21917 1-419): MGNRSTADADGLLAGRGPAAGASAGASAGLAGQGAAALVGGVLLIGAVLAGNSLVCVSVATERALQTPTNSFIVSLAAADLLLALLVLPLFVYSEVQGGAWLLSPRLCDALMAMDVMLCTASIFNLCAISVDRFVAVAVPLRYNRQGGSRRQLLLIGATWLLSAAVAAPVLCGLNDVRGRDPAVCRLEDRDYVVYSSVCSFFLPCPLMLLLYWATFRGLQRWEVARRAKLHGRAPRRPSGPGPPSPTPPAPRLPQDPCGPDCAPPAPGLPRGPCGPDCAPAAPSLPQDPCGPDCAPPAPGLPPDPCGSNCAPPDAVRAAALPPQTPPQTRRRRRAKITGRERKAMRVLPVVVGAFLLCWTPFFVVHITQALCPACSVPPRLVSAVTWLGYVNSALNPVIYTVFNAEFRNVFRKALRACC
Kind of assay: cell-based functional GPCR assay, cAMP modulation, CHO-D4R. To be noted: for % Stimulation of control agonist response: D4 (h), 100 µM test compound, control 300 nM DA; for agonist response (%): D4R, 25 µM test compound; for inhibition at 100 µM: read-out: % Inhibition of control agonist response.

Assay [5] has as its target T4, Human Monoamine Oxidase B (hMAO-B) (Homo sapiens, UniProt P27338).
T4 construct: purchased Sigma-Aldrich
T4 sequence (P27338 1-520): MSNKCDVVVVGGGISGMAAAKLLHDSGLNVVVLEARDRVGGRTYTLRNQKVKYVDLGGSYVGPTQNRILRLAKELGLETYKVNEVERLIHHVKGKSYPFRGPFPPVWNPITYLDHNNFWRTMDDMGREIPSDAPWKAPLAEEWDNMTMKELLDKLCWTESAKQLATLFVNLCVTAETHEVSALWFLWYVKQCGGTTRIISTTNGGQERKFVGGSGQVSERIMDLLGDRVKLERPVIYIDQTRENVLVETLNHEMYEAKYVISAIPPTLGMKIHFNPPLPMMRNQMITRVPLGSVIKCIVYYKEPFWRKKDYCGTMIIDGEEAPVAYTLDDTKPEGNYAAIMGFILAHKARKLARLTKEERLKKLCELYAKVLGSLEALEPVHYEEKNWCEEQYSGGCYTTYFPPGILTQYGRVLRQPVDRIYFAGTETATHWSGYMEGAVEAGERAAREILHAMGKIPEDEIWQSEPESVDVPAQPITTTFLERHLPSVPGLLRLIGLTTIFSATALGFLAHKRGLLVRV
The assay can be described thus: hMAO-B inhibition, MAO-Glo chemiluminescent assay and enzyme kinetics. Format: biochemical. The note with it: for Inhibition Type: Lineweaver–Burk and Dixon plots; for IC50: log dose-inhibition curve, triplicate, read-out: IC50 (μM, Mean ± SD).

Assay [6] has as its target human dopamine D1 receptor (hD1R) (Homo sapiens, UniProt P21728). The assay can be described thus: cell-based functional GPCR assay, cAMP modulation, CHO-D1R. To be noted: for % Stimulation of control agonist response: D1 (h), 100 µM test compound, control 10 μM DA; for inhibition at 100 µM: read-out: % Inhibition of control agonist response; for inhibition at 25 µM: read-out: % inhibition of DA response.

Setting [7] is: hD2LR antagonist effect, read-out: IC50 (inhibition of control agonist response).
Setting [8] is: hMAO-A, Dixon plot, read-out: Ki Value.
Setting [9] is: hMAO-A, log dose-inhibition curve, triplicate, read-out: IC50 (μM, Mean ± SD).

Several values for one entry are separate records, joined by “and”; a condition that tells them apart may be missing. Identical values can stand only once. Like-named read-outs stand apart in the source and are kept apart here.

human dopamine D1 receptor (hD1R), sequence (P21728 whole entry): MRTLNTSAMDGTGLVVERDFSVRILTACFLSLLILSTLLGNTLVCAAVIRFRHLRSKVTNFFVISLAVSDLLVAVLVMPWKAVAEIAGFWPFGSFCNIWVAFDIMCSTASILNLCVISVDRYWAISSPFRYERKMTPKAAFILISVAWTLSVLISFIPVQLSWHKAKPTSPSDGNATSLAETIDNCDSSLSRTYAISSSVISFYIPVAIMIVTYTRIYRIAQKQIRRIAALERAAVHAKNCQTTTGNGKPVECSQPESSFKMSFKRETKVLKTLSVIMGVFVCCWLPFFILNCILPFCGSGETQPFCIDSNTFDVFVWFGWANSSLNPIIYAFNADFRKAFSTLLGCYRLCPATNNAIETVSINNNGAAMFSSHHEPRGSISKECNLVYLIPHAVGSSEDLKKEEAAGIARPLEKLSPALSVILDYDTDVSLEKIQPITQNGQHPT
T1 sequence (P14416 whole entry): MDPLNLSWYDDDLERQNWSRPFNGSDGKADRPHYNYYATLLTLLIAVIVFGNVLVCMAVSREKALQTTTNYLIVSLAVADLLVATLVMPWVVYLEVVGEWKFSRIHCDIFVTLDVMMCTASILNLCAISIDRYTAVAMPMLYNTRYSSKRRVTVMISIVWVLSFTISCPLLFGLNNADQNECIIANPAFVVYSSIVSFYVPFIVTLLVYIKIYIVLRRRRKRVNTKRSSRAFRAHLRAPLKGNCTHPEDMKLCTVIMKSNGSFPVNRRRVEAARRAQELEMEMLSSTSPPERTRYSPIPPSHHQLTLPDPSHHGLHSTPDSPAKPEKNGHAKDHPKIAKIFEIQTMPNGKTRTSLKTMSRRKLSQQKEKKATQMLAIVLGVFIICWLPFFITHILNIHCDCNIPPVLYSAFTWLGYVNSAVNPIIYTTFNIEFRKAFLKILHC
human dopamine D3 receptor (hD3R), sequence (P35462 whole entry): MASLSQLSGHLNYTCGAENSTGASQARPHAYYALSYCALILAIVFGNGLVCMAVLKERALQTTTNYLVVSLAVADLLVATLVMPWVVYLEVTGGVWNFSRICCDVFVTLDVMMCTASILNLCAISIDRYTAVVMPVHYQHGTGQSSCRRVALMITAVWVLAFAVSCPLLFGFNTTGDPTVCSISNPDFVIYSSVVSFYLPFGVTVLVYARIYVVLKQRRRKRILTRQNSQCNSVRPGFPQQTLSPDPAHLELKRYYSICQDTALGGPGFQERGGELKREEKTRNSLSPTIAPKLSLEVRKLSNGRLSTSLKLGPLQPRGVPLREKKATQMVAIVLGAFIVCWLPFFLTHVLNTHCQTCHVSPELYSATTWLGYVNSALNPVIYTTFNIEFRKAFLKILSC

Regarding `CC1=C[C@H]2c3c(O)cc(-c4cc5ccc(O)cc5o4)cc3O[C@@]3(c4ccc(O)cc4O)Oc4cc(O)ccc4[C@H](C1)[C@@H]23` [Compound 1, mulberrofuran G], in the assay with hMAO, the “% inhibition of hMAO activity” value is on record as 93.87%. Also, the results for the EC50 in assay [1] and in assay [4] were 15.1 µM and 17.2 µM, respectively. Besides, the “% Stimulation of control agonist response” value (shortened to “% Stimulation”) was 119.9% and 119.9 ± 2.44% in assay [1]; 7.10 ± 1.47% in assay [2]; 86.30% and 86.30 ± 0.99% in assay [4]; 17.2 ± 8.4% in assay [6]. The results for the “agonist response (%)” value in assay [1] and in assay [4] were 71.92% and 63.00%, respectively. In addition, the inhibition at 100 µM in assay [1] was -28.7%; in assay [2] it was 101%; in assay [4], -20.8%; in assay [6], 87.7%. The values for the inhibition at 25 µM in assay [2] and in assay [6] were 97.2% and 92.3%, respectively. In addition, the IC50 in assay [2] (setting [7]) amounted to 2.41 µM; in assay [3] (setting [9]) it was 54.79 ± 0.03 µM; in assay [5], 18.1 ± 1.06 µM; in assay [6] it was 6.13 µM. The Ki was found to be 27 ± 3.98 µM in assay [3] (setting [8]) and 17 ± 3.31 µM in assay [5] (Dixon plot, read-out: Ki Value). The “Inhibition Type” value is on record as “Competitive” in assay [3] (hMAO-A) and “Noncompetitive” in assay [5].
Consider `CC(C)=CCc1c(-c2ccc(O)cc2O)oc2c(C3C=C(C)CC(c4ccc(O)cc4O)C3C(=O)c3ccc(O)cc3O)c(O)cc(O)c2c1=O` (stereo not drawn) [Compound 2, kuwanon G], for which the “% inhibition of hMAO activity” value with hMAO turned out to be 99.05%. In addition, in assay [1], a half-maximal response (EC50) required 20.2 µM and the inhibition at 100 µM is -27.4%. Also, in assay [2], the IC50 worked out at 31.2 µM, the inhibition at 100 µM was 99.2%, the “% Stimulation” value is recorded as “NSI” and the inhibition at 25 µM was found to be 33.7%. Also, in assay [3], the IC50 came to 70.2 ± 2.6 µM and the Ki worked out at 28.3 ± 2.02 µM. In assay [3] (hMAO-A), the “Inhibition Type” value was “Competitive”. In addition, in assay [4], the EC50 worked out at 21 µM; the “% Stimulation” value was 90.45% and 90.45 ± 0.14%; the “agonist response (%)” value is on record as 58.66%; the inhibition at 100 µM was -29.6%. For the same compound, in assay [5] (Dixon plot, read-out: Ki Value), the Ki was determined as 52.1 ± 5.56 µM. In assay [5], the “Inhibition Type” value is reported as “Noncompetitive” and the IC50 was found to be 57.7 ± 2.12 µM. In assay [6], 16.5 µM corresponded to half-maximal inhibition (IC50), the “% Stimulation” value is given as 0.85 ± 0.24%, the inhibition at 100 µM is 98.8% and the inhibition at 25 µM was 91.1%.
On to `Cc1cc2c3c(c1)-c1c(O)cc(-c4cc5ccc(O)cc5o4)cc1OC3(c1ccc(O)cc1O)Oc1cc(O)ccc1-2` (stereo not drawn) [Compound 3, albanol B], for which, in the assay with hMAO, the “% inhibition of hMAO activity” value is on record as 74.85%. The EC50 in assay [1] was 12.6 µM. For the same compound, the “% Stimulation” value in assay [1] is 102.8% and 102.8 ± 1.36%; in assay [2], 4.10 ± 1.06%; in assay [4], 46.10% and 46.10 ± 1.76%; in assay [6], “INTER”. Further, the “agonist response (%)” value in assay [1] came out at 94.93%. Also, the inhibition at 100 µM in assay [1] was -13.4%; in assay [2] it was 78.5%; in assay [4], 26.9%; in assay [6] it was 67.8%. The inhibition at 25 µM in assay [2] is 81.1%; in assay [6], 66.8%. Besides, the IC50 was 18.4 µM in assay [2] (setting [7]), 114 ± 2.3 µM in assay [3] (setting [9]), 90.6 ± 1.72 µM in assay [5] and 7.16 µM in assay [6]. Also, the Ki in assay [3] (setting [8]) stood at 46.9 ± 4.12 µM; in assay [5] (secondary plot, read-out: Kic (binding constant with free enzyme)) it was 55.2 ± 7.79 µM. Also, the “Inhibition Type” value is on record as “Competitive” in assay [3] (hMAO-A) and “mixed type” in assay [5]. Also, the “Kiu (binding constant with enzyme-substrate complex)” value in assay [5] (secondary plot) is 186.2 ± 10.26 µM.
